Results as given in PubChem BioAssay AID2060501 (Molecular Pharmacology Branch, DTP, NCI, 2025).

Tested on: 282377-053-R-J1-PDC complex spheroids, viability
Assay: Anticancer human tumor 282377-053-R-J1-PDC patient-derived colon adenocarcinoma cell line growth inhibition [GQUAD]
Settings: for IC50: curve of first compound; for viability, T/C: stronger effect = lower value
Outline: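 Viability of tumor cells grown as complex spheroids with endothelial and stromal cells, exposed to drug combinations. Top concentration at or near clinical Cmax (else 10 microM), diluted in half-log increments.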

[1] = second compound 0.0316 µM, first compound 0.0316 µM
[2] = second compound 0.0316 µM, first compound 0.1 µM
[3] = second compound 0.0316 µM, first compound 0.316 µM
[4] = second compound 0.0316 µM, first compound 1 µM
[5] = second compound 0.0316 µM, first compound 3.16 µM
[6] = second compound 0.0316 µM, first compound 10 µM
[7] = second compound 0.1 µM, first compound 0.0316 µM
[8] = second compound 0.1 µM, first compound 0.1 µM
[9] = second compound 0.1 µM, first compound 0.316 µM
[10] = second compound 0.1 µM, first compound 1 µM
[11] = second compound 0.1 µM, first compound 3.16 µM
[12] = second compound 0.1 µM, first compound 10 µM
[13] = second compound 0.316 µM, first compound 0.0316 µM
[14] = second compound 0.316 µM, first compound 0.1 µM
[15] = second compound 0.316 µM, first compound 0.316 µM
[16] = second compound 0.316 µM, first compound 1 µM
[17] = second compound 0.316 µM, first compound 3.16 µM
[18] = second compound 0.316 µM, first compound 10 µM
[19] = second compound 1 µM, first compound 0.0316 µM
[20] = second compound 1 µM, first compound 0.1 µM
[21] = second compound 1 µM, first compound 0.316 µM
[22] = second compound 1 µM, first compound 1 µM
[23] = second compound 1 µM, first compound 3.16 µM
[24] = second compound 1 µM, first compound 10 µM
[25] = second compound 3.16 µM, first compound 0.0316 µM
[26] = second compound 3.16 µM, first compound 0.1 µM
[27] = second compound 3.16 µM, first compound 0.316 µM
[28] = second compound 3.16 µM, first compound 1 µM
[29] = second compound 3.16 µM, first compound 3.16 µM
[30] = second compound 3.16 µM, first compound 10 µM
[31] = second compound 10 µM, first compound 0.0316 µM
[32] = second compound 10 µM, first compound 0.1 µM
[33] = second compound 10 µM, first compound 0.316 µM
[34] = second compound 10 µM, first compound 1 µM
[35] = second compound 10 µM, first compound 3.16 µM
[36] = second compound 10 µM, first compound 10 µM
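Note: spheroids exposed to compounds for 7 days before readout.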
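Throughout, for viability, T/C: percent of vehicle DMSO control viability with 100% = untreated-like growth.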

`C#Cc1c(F)ccc2cc(O)cc(-c3ncc4c(N5CC6CCC(C5)N6)nc(OCC56CCCN5CC(F)C6)nc4c3F)c12` (centres undefined) + Cc1cnc(CNC(=O)c2c(=O)c3ccc(N4CCCN(C)CC4)nc3n3c2sc2ccccc23)cn1 gave an IC50 (second compound 0.0316 µM) greater than 10 µM, an IC50 (second compound 0.1 µM) greater than 10 µM and an IC50 (second compound 0.316 µM) greater than 10 µM. For the same molecule, the IC50 (second compound 1 µM) was greater than 10 µM, the IC50 (second compound 3.16 µM) was 4.14 µM and the IC50 (second compound 10 µM) was less than 0.0316 µM. For the same molecule, the viability, T/C [1] was 102%, the viability, T/C [2] was 87.4% and the viability, T/C [3] was 122%. It also gave a viability, T/C [4] of 83.2%, a viability, T/C [5] of 100% and a viability, T/C [6] of 94.7%. The viability, T/C [7] was 127%, the viability, T/C [8] was 109% and the viability, T/C [9] was 89.9%. It also gave a viability, T/C [10] of 86%, a viability, T/C [11] of 120% and a viability, T/C [12] of 93.5%. The viability, T/C [13] was 86.5%, the viability, T/C [14] was 102% and the viability, T/C [15] was 85.5%. The viability, T/C [16] was 77.1%, the viability, T/C [17] was 91.3% and the viability, T/C [18] was 83.9%. The viability, T/C [19] was 64.3%, the viability, T/C [20] was 47.6% and the viability, T/C [21] was 47.2%. It also gave a viability, T/C [22] of 59.2%, a viability, T/C [23] of 71.8% and a viability, T/C [24] of 58.5%. The viability, T/C [25] was 46.5%, the viability, T/C [26] was 53% and the viability, T/C [27] was 58.5%. The viability, T/C [28] was 52.2%, the viability, T/C [29] was 51.7% and the viability, T/C [30] was 44.1%. The viability, T/C [31] was 36.8%, the viability, T/C [32] was 40.3% and the viability, T/C [33] was 52.9%. The viability, T/C [34] was 46%, the viability, T/C [35] was 45.7% and the viability, T/C [36] was 37.8%.

`O=c1[nH]cc(F)c(=O)[nH]1` + Cc1cnc(CNC(=O)c2c(=O)c3ccc(N4CCCN(C)CC4)nc3n3c2sc2ccccc23)cn1 showed an IC50 (second compound 0.0316 µM) greater than 10 µM, an IC50 (second compound 0.1 µM) greater than 10 µM and an IC50 (second compound 0.316 µM) greater than 10 µM. For the same molecule, the IC50 (second compound 1 µM) was greater than 10 µM, the IC50 (second compound 3.16 µM) was greater than 10 µM and the IC50 (second compound 10 µM) was less than 0.0316 µM. The viability, T/C [1] was 98.6%, the viability, T/C [2] was 92.1% and the viability, T/C [3] was 114%. The viability, T/C [4] was 82.9%, the viability, T/C [5] was 77% and the viability, T/C [6] was 65.4%. The viability, T/C [7] was 94.6%, the viability, T/C [8] was 97.7% and the viability, T/C [9] was 107%. The viability, T/C [10] was 76.2%, the viability, T/C [11] was 76.1% and the viability, T/C [12] was 65%. For the same molecule, the viability, T/C [13] was 78.3%, the viability, T/C [14] was 82.6% and the viability, T/C [15] was 81.4%. For the same molecule, the viability, T/C [16] was 76.3%, the viability, T/C [17] was 68.5% and the viability, T/C [18] was 62.8%. For the same molecule, the viability, T/C [19] was 51.3%, the viability, T/C [20] was 51.8% and the viability, T/C [21] was 62.5%. The viability, T/C [22] was 56.8%, the viability, T/C [23] was 55.6% and the viability, T/C [24] was 48.3%. For the same molecule, the viability, T/C [25] was 54.8%, the viability, T/C [26] was 50.1% and the viability, T/C [27] was 49%. It also gave a viability, T/C [28] of 44.2%, a viability, T/C [29] of 63.6% and a viability, T/C [30] of 53.9%. The viability, T/C [31] was 46.4%, the viability, T/C [32] was 45.7% and the viability, T/C [33] was 54.5%. The viability, T/C [34] was 52.5%, the viability, T/C [35] was 54.5% and the viability, T/C [36] was 34.9%.
